Like-named read-outs stand apart in the source and are kept apart here.
Experiments:
[1] = resin
[2] = disulfide bond; 44-membered ring; resin; 3 steps
[3] = crosslinker bond, 30-membered ring
[4] = disulfide bond, 20-membered ring

Q: Which ring closure, conversion ([1]; crosslinker bond, 31-membered ring) does the source give for H-ACREGFLRCLHRPTVCNG-H2 here?
A: 99%

Q: Which ring closure, conversion [1, 3] does the source give for H-ACSWPARCLHQDLCA-NH2 here?
A: 99%

Q: Which ring closure, conversion [1, 3] does the source give for H-ACYNEFGCEDFYDICA-NH2 here?
A: 99%

Q: Which ring closure, crude yield [2] does the source give for H-CRVPGDAHHADSLC-NH2 here?
A: 22%

Q: And the ring closure, conversion ([1]; crosslinker bond, 49-membered ring)?
A: 99%

Q: What about the ring closure, conversion ([1]; disulfide bond, 44-membered ring) of the same substance?
A: 22%

Q: For H-CYFQNCPRG-NH2, which ring closure, conversion [1, 4] is on record?
A: 95%

Q: For “H-KCNTATCATQRLANFLVHSSNFGPILPPTNVGSNTY-NH2”, which ring closure, conversion [1, 4] is on record?
A: 99%

Q: For H-VRCPGAAHHADSLC-NH2, which ring closure, conversion ([1]; disulfide bond, 38-membered ring) is on record?
A: 99%

Q: Which ring closure, conversion ([1]; crosslinker bond, 19-membered ring) does the source give for H-VRVPGCAHCADSLY-NH2 here?
A: 99%
